Reference: a melting point compilation (Tetko et al.)

melting point	Compound
117 to 120 °C	COc1cc(OC(C)=O)c2c(=O)c(O[C@@H]3O[C@H](COC(C)=O)[C@H](OC(C)=O)[C@H](OC(C)=O)[C@@H]3O[C@@H]3O[C@H](C)[C@H](OC(C)=O)[C@H](OC(C)=O)[C@@H]3OC(C)=O)c(-c3ccc(OC(C)=O)c(OC(C)=O)c3)oc2c1
203 to 208 °C	Cc1ccc(S(=O)(=O)N[C@H](c2ccccc2)[C@H](NS(=O)(=O)c2ccc(C)cc2)c2ccccc2)cc1
207 to 209 °C	Cc1ccc(/C=N/c2nc(C(F)(F)F)n[nH]2)cc1
227 °C	CC1(C)C2CCC13CS(=O)(=O)N=C3C2 (stereo not drawn)
171 °C	NNC(=O)c1ccncc1
37 °C	OCCCc1ccncc1
29 °C	C=Cc1ccccc1OC
47.5 °C	Cc1ccc(-c2ccccc2)s1
-120 °C	FC(F)(F)C(Cl)C(F)(F)F
192 °C	O=c1[nH]c(=O)n(C2CC(O)C(CO)O2)cc1Br (stereo not drawn)
130 °C	Cc1cc[nH]c(=O)c1
70 to 73 °C	CC(=O)Nc1ccc(F)cc1[N+](=O)[O-]
133 °C	O=Cc1ccccc1OCC(=O)O
94 to 98 °C	Nc1ncccc1OCc1ccccc1
205 to 206 °C	Cc1nn(-c2ccccc2)nc1C(=O)NNC(=S)Nc1ccccc1
223 °C	O=C(c1ccc(O)cc1)c1ccc(O)cc1
83 to 84 °C	OCc1cc(C(F)(F)F)ccc1N1CCOCC1
248 to 252 °C	CC(=O)O[C@H](c1ccccc1)C(O)(c1ccccc1)c1ccccc1
130 to 132 °C	CC(=O)c1csc(-c2cc(C)on2)n1
188 to 190 °C	Cn1c(S)nnc1CC#N
102 °C	Cc1ccc(C(=O)CC#N)cc1
79 to 81 °C	CC(SCc1ccccc1)C(=O)O (stereo not drawn)

melting point	Compound
36 °C	COc1cc(C)cc(OC)c1OC
16 °C	C=COCCCCCCCCCCCCCCCC
139 to 140 °C	O=c1c(Cl)c(Cl)cnn1-c1ccc(C(F)(F)F)cc1
75.5 °C	CCOC(=O)C1(S(=O)(=O)c2ccc(C)cc2)CC1
40.5 to 43 °C	CCCCCOc1ccc(/N=N/c2ccc(CCCC)cc2)cc1
93 to 94 °C	c1ccc(-c2nsc(N3CCNCC3)n2)cc1
166 °C	COC(=O)CCc1c([N+](=O)[O-])cc2c(c1[N+](=O)[O-])NC(=O)CC2
92 to 94 °C	CN(C(=S)Cl)c1ccc(F)cc1
130 °C	O=Cc1ccc(OCc2ccc([N+](=O)[O-])cc2)cc1
97 to 99 °C	S=C1NCCc2ccccc21
268 to 269 °C	C/C(=N\c1ccccc1O)c1c(O)c2ccccc2n(-c2ccccc2)c1=O
203 to 205 °C	CC(C)C1=C(O)C(=O)C2=C(C1=O)C(O)C(O)C1C(C)(C)CCCC21C (stereo not drawn)
134 to 136 °C	Cc1ccc(CNC2=CC(=O)c3ccccc3C2=O)nc1
207 °C	COC(=O)c1sc(SC)c(C#N)c1N
342 °C	CCOC(=O)c1c(C)[nH]c2cc3[nH]c(C)c(C(=O)OCC)c3cc12
25 to 29 °C	CCCCCCCCCCCCCCCCc1ccccc1
72 °C	O=C(Oc1ccccc1)c1cccnc1
119 °C	O=C(NCCO)C1CCCNC1 (stereo not drawn)
51 °C	COc1c(C)cc2c(c1C)CC2=O
28.3 °C	CCCCCCCCCCCCN
144 °C	CCOc1ccc2ccccc2c1C(=O)O
137 °C	O=C(OCCc1ccc(CCOC(=O)c2ccccc2)cc1)c1ccccc1

melting point	Compound
22 °C	CCOc1ccc(C=O)cc1OCC
38.5 °C	CSc1ccc(Br)cc1
28 to 30 °C	COc1ccc(CCO)cc1
110 to 112 °C	COc1ccc(OCC(O)CN)cc1 (stereo not drawn)
166 °C	COC(=O)c1cccc(C(=O)O)c1
56.5 °C	COc1cc(CC#N)ccc1O
302 °C	Nc1nc(N)c2nc[nH]c2n1
128 to 129 °C	CC(=O)NCCCCCCNC(C)=O
187 °C	Cc1c(N)cccc1C(=O)O
224 to 229 °C	COc1ccc(Br)cc1C=CC(=O)O
179 °C	COc1ccc(-c2ccc(S(=O)(=O)NC(C)C(=O)O)cc2)cc1 (stereo not drawn)
69 °C	N#Cc1cc(S(=O)(=O)Cl)ccc1F
129 to 132 °C	CCCOc1c(Cl)cc(C(=O)O)cc1Cl
41 to 43 °C	Cc1cc(N)n[nH]1
97 to 98 °C	Cc1[nH]nc(C(F)(F)C(F)(F)C(F)(F)F)c1[N+](=O)[O-]
288 °C	C=C1C(=O)C23C(OC)CC4C5(C)CCCC4(COC5)C2C(O)CC1C3O (stereo not drawn)
157 °C	N#CCCN(CCO)c1ccc(N=Nc2ccc([N+](=O)[O-])cc2Cl)cc1
17 °C	O=C(O)C1CC=CCC1 (stereo not drawn)
-66 °C	COC(=O)C(C)O (stereo not drawn)
83 °C	Cc1ccc(NC(=O)C(F)(F)C(F)(F)C(F)(F)C(F)(F)C(F)(F)C(F)(F)C(F)(F)C(F)(F)F)c(C)c1
165 to 166 °C	O=C(NCOC(=O)c1ccc(O)cc1)c1ccccc1
155 to 158 °C	NS(=O)(=O)c1cccc(Br)c1

melting point	Compound
214 °C	FC(F)(F)c1nc2c(Cl)c(Cl)ccc2[nH]1
157 to 161 °C	CSCCC(NC(=O)c1cccnc1SC)C(=O)O (stereo not drawn)
171 °C	COc1ccc(N/C=C2\C(=O)C3(C)CCC2C3(C)C)cc1 (stereo not drawn)
100 °C	OCc1cc2ccccc2s1
99 °C	CC(=O)Nc1ccccc1Br
79 to 81 °C	N#Cc1ccc(C#N)c(OC(F)(F)F)c1
42 to 43 °C	Nc1cc(C(F)(F)F)cc(Cl)c1N
76.8 °C	CC(=O)C(C)=NO
203 to 207 °C	O=C1c2ccccc2C(=C(c2ccccc2)c2ccccc2)c2ccccc21
152 °C	O=C(c1ccc2ccccc2c1)C(O)c1ccccc1 (stereo not drawn)
176 to 178 °C	NC(=S)c1c(Cl)cc(C(F)(F)F)cc1Cl
110 °C	CC(=O)Nc1ccccc1CCNCCc1ccccc1NC(C)=O
58 to 62 °C	O=[N+]([O-])c1cc(C(F)(F)F)ccc1Oc1ccccc1Br
99 °C	Cc1cc(I)cnc1NCC(=O)OC(C)(C)C
132 °C	CCCCCCCCc1ccc(NC(=O)c2ccc(OC)cc2)cc1
68 °C	CC(=O)C=CC=Cc1ccccc1
124 to 125 °C	Cc1csc(C(=O)O)c1
122 °C	Cc1cc(C)cc(OCC2CNC(=O)O2)c1 (stereo not drawn)
51 to 53 °C	CCOC(=O)C1CCN(c2cc(C#N)ccn2)CC1
60 to 62 °C	COC1=C(OC)/C(=C/C=O)OC1=O
170 to 173 °C	NC(=O)NC=O
133 °C	COc1c2c(cc3oc(=O)ccc13)OC(C)(C)C=C2

melting point	Compound
99 to 102 °C	O=C(Cl)c1cc2cc(Br)ccc2s1
90 to 93 °C	N#Cc1c([N+](=O)[O-])ccc(Cl)c1Cl
203 to 205 °C	CCOP(=O)(OCC)Oc1c2cc(C(C)(C)C)cc1Cc1cc(C(C)(C)C)cc(c1O)Cc1cc(C(C)(C)C)cc(c1OP(=O)(OCC)OCC)Cc1cc(C(C)(C)C)cc(c1O)C2
89 °C	CC(C)C/C(Cc1ccccc1)=N\NC(N)=O
86 °C	O=C(Cc1ccccc1)C(=O)Cc1ccccc1
115 to 117 °C	O=C(NCCCCO)OCC1c2ccccc2-c2ccccc21
302 to 303 °C	CC(C)[C@@H](N)C(=O)O
96 °C	CC(C(=O)O)c1ccc(C(=O)c2ccccc2)s1 (stereo not drawn)
187 °C	O=[N+]([O-])c1cccc2cn[nH]c12
62 to 66 °C	O=C=Nc1ccc(Oc2ccc(N=C=O)cc2)cc1
209 to 211 °C	CCOC(=O)c1c(NC(=S)Nc2ccc(F)cc2)sc2c1CCCC2
269 to 270 °C	O=c1[nH]c2scc(-c3ccccc3)c2c(=O)n1-c1cccc(Cl)c1
72 °C	OCc1cc(C(F)(F)F)ccc1Br
142 to 143 °C	O=Cc1cc2cccnc2s1
149 to 152 °C	CC(=O)OC1CCC2(C)C(=CCC3C2CCC2(C)C(C(C)=O)CCC32)C1 (stereo not drawn)
86.5 °C	COc1c(CC(O)C(C)C)c(=O)n(C)c2c(OC)cccc12 (stereo not drawn)
134 °C	COc1c(OC)c(OC(C)=O)c2c(Cl)cccc2c1OC(C)=O
130 °C	CC(C)NC(=O)COC(=O)c1ccccc1
102 °C	O=C(c1ccccc1)c1ccc(Cl)c(Cl)c1
199 to 201 °C	Oc1nn(-c2ccc(Br)cc2)cc1Br
60 °C	N#Cc1ccc(Cl)cc1F

Compound	melting point
CC(C)(C#N)C(C)(C)C#N	170 °C
CCOC(=O)CC(SP(=S)(OC)OC)C(=O)OCC (stereo not drawn)	2.8 °C
Nc1c(Cl)c(F)nc(OCC(=O)O)c1Cl	232 °C
CCOP(=S)(OCC)Oc1ccc2c3c(c(=O)oc2c1)CCCC3	88.2 °C
Clc1ccc(Cl)c(Cl)c1	17 °C
CN1CCc2cc3c(cc2C1C1OC(=O)c2c1ccc1c2OCO1)OCO3 (stereo not drawn)	194 °C
O=C(Cl)c1sccc1Br	65 to 67 °C
Cc1cc(N)ccc1N	64 °C
O=C(Cl)c1ccccc1Cl	-4 °C
CCOC(=O)C1(c2ccccc2)CCN(C)CC1	270 °C
C1=CC2C3C=CC(C3)C2C1 (stereo not drawn)	33.6 °C
COc1cc2c(cc1O)CCNC2	222 °C
Nc1cccc(Cc2cccc(N)c2)c1	81.5 °C
Oc1ccccc1-c1ccccc1O	109 °C
O=[N+]([O-])c1cnc(Cl)c([N+](=O)[O-])c1	63 to 66 °C
Cc1ccc(Cl)c(O)c1	46 °C
COP(=S)(OC)Oc1c(Cl)cc(C)cc1Cl	79 °C
CC(=O)OC1CCC2C3CCC4CC(C#Cc5ccccc5)(OC(C)=O)CCC4(C)C3CCC12C (stereo not drawn)	100 to 111 °C
C=CCC1(C2C=CCCC2)C(=O)NC(=S)NC1=O (stereo not drawn)	148 °C
